Structures are written as SMILES. ≈ marks a conversion by molar mass, not a printed value.

One test deals with MCF-7. The experiment in a line: MTT cell proliferation assay, MCF-7. The class given is cell-based, human. The note with it: Homo sapiens, MCF7; Table 4. The method in brief: (§1)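 Cells exposed three days to compounds at concentrations up to 10 μg/ml (≤0.5% DMSO), then 0.5 mg/ml MTT for 4 h at 37 °C. Solubilized formazan read at 540 nm; IC50 calculated from quadruplicate wells.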

The next test has as its system A549. Kind of test: MTT cell proliferation assay, A549. The class given is cell-based, human. Particulars: Homo sapiens, A549; read-out: Inhibition of cell proliferation (IC50). As to the method:
(§2) MTT [3-(4,5-dimethylthiazol-2-yl)-2,5-diphenyltetrazolium bromide] incorporation based cell proliferation assay was performed as described previously (Reference). The cytotoxic efficacy of some analogs was evaluated in different cell lines by MTT cell proliferation assay kit (Roche Applied Sciences, Germany). The assay was carried out according to the instruction provided by the vendor. Briefly, in brief, equal numbers of cells was plated in 96-well flat-bottomed plates in 100 μl of medium and were exposed to different analogs selected from 1 to 63 at various concentrations up to 10 μg/ml for a period of three days. Vehicle control culture wells received only a maximum of 0.5% DMSO. Thereafter, 0.5 mg/ml of MTT reagent was added to each well and the microplate was incubated further for 4 h at 37° C. in presence of 5% CO2. Finally, the cells were solubilized by adding solubilizing solution and allowed to incubate at 37° C. overnight. After complete solubilization of the formazan crystals the absorbance was read at 540 nm in a microplate reader (BioRad, USA). The results (mean OD±SD) obtained from quadruplicate wells were used in calculation to determine the inhibition of cell proliferation (50% of inhibitory concentration, IC50) of the test compounds.
On the technique in general: Formazan colour is commonly taken as a measure of viable cells.

The test system of another test is B16. Kind of test: MTT cell proliferation assay, B16. It counts as cell-based, mouse. Particulars: Mus musculus, B16; read-out: Inhibition of cell proliferation (IC50). As for the experimental part:
as §2

Test [1] deals with B16 murine melanoma cells. Kind of test: Cell cycle analysis by flow cytometry. The note with it: 24 h. The class given is cell-based. As for the experimental part: For flow cytometry, cells were harvested after the treatment period, washed with phosphate buffered saline (PBS), and adjusted the cell count at 2×10^6 cells per milliliter. The cells were fixed in 70% ethanol for 30 min at 4° C. Cells were then washed two times with PBS and stained with 0.5 μg/ml propidium iodide at 37° C. for 30 min and analyzed by flow cytometry. Data were acquired on a FACS Scan flow cytometer (Becton Dickinson) and analyzed by using the Cellquest software.
On the technique in general: A flow cytometer gives signals particle by particle.

For the next test, the system named is HT-29. Kind of test: In vitro antitumor activity, HT-29. It counts as cell-based. The note with it: Homo sapiens, read-out: Inhibition of cell proliferation (IC50). As for the experimental part: as §2, with “USA).” for “USA). The results (mean OD±SD) obtained from quadruplicate wells were used in calculation to determine the inhibition of cell proliferation (50% of inhibitory concentration, IC50) of the test compounds.”

The subject of test [2] is MDA-MB-231. Kind of test: MDA-MB-231 clone (colony) formation in vitro. It counts as cell-based, human. The note with it: 1.0, 1.5, 2.0, 2.5 μg/ml, 8 days. As for the experimental part: Inhibitory efficacy in clone formation of LI-51255 was tested by following the procedure described earlier with some modifications (Wu et al. 2005). Briefly, MDA-MB-231 cells were harvested and seeded into 6-well plates (100 cells/ml). The cells were allowed to grow for 4 days and thereafter, the cells were incubated with DMEM containing either 0.5% DMSO or 25 μg/ml AKBA or different concentrations (1.0, 1.5, 2.0, 2.5 μg/ml) of LI-51255 for further 8 days. Fresh medium containing test agents was replaced at every 24 h. Finally, the wells were washed three times with PBS and fixed in methanol for 15 min. The cells were stained with Giemsa stain and observed under microscope. The image of the stained wells were captured digitally (Kodak Image Station 4000MM, Carestream Health Inc., New Haven, Conn.) and number of colonies were counted and analyzed by using NIH Image J software.

In another test the test system is A375. Kind of test: MTT cell proliferation assay, A375. The class given is cell-based, human. Particulars: Homo sapiens, A-375; A375; read-out: Inhibition of cell proliferation (IC50). As for the experimental part: as §2
The subject of test [3] is Human umbilical vein endothelial cells (HUVEC). The experiment in a line: In vitro capillary-like tube formation assay. The class given is cell-based. Particulars: HUVEC on Cultrex, 1, 2.5 and 5 μg/ml, 16 h. As for the experimental part:
In vitro capillary formation assay was performed with Human umbilical vein endothelial cells (HUVEC), cultured on 10 mg/ml basement membrane extract (BME—Cultrex®, R&D Systems, USA) bed. The protocol of in vitro endothelial tube formation assay was the same as described earlier with some modifications (Reference). Briefly, four hundred microliters of Cultrex was coated at 4° C. in each well of 24-well culture plate and allowed to gel at 37° C. for 1 h. HUVECs were plated at a density of 7.5×10^4 cells per well with 400 μl of DMEM supplemented with 10% fetal bovine serum and 4.5 g/l D-glucose. The cells were then treated with either 0.5% DMSO or different concentrations of LI-51255 for 16 hours. Pictures were taken under a Nikon Eclipse TS 100 microscope equipped with a Nikon Coolpix camera (FIG. 1B).

For the next test, the system named is AKT pathway. The experiment in a line: AKT pathway western immunoblot in MDA-MB-231 cells. The class given is cell-based, human. Particulars: MDA-MB-231, 10 μg/ml, 0-240 min. As to the method: Equal number of MDA-MB-231 human breast tumor cells (ER-) was plated in 25 cm^2 cell culture flasks. The cells treated with either 0.5% DMSO as vehicle or 10 μg/ml of LI-51255 for 0, 5, 10, 20, 30, 60, 120 and 240 min. The cells were lysed in cell lysis buffer.
Background: In western blotting, separated proteins are transferred to a membrane and probed.

The test system of the next test is SKBR3. Kind of test: In vitro antitumor activity, SKBR3. It counts as cell-based. Particulars: Homo sapiens, SK-BR-3, read-out: Inhibition of cell proliferation (IC50). As for the experimental part: as §2, with “USA).” for “USA). The results (mean OD±SD) obtained from quadruplicate wells were used in calculation to determine the inhibition of cell proliferation (50% of inhibitory concentration, IC50) of the test compounds.”

In a further test the test system is A2058. Kind of test: In vitro antitumor activity, A2058. It counts as cell-based. Particulars: Homo sapiens, read-out: Inhibition of cell proliferation (IC50). As for the experimental part: as §2, with “USA).” for “USA). The results (mean OD±SD) obtained from quadruplicate wells were used in calculation to determine the inhibition of cell proliferation (50% of inhibitory concentration, IC50) of the test compounds.”

The subject of test [4] is MDA-MB-231. The experiment in a line: MTT cell proliferation assay, MDA-MB-231. The class given is cell-based, human. The note with it: Homo sapiens, MDA-MB-231; Table 4. An outline of the steps:
as §1

The subject of another test is DU145. The experiment in a line: In vitro antitumor activity, DU145. Particulars: Homo sapiens, DU-145, read-out: Inhibition of cell proliferation (IC50). The class given is cell-based. As to the method:
as §2, with “USA).” for “USA). The results (mean OD±SD) obtained from quadruplicate wells were used in calculation to determine the inhibition of cell proliferation (50% of inhibitory concentration, IC50) of the test compounds.”

Regarding `CC(=O)O[C@@H]1CC[C@@]2(C)C(CC[C@]3(C)C2C(=O)C=C2C4[C@@H](C)[C@H](C)CC[C@]4(C)CC[C@]23C)[C@@]1(C)C(=O)NCCN` (stereo partly shown) [Analog 21], the IC50 in the test on MCF-7 turned out to be 13 µg/mL (≈ 23.4 µM); in the test with A549, 6.83 µg/mL (≈ 12.3 µM); in the test on B16, 4.35 µg/mL (≈ 7.84 µM); in the test with HT-29 it was 8.87 µg/mL (≈ 16 µM); in the test on A375 it was 3.53 µg/mL (≈ 6.36 µM); in the test with SKBR3, 5.3 µg/mL (≈ 9.55 µM). Moreover, the IC50 stood at 3.59 µg/mL (≈ 6.47 µM) in the test on A2058, 3.45 µg/mL (≈ 6.22 µM) in the test on MDA-MB-231 [4] and 4.24 µg/mL (≈ 7.64 µM) in the test on DU145. In addition, the “cell cycle progression” value in [1] is recorded as “interrupts cell cycle progression at sub G1 phase”. Besides, the MDA-MB-231 colony formation result in the test with MDA-MB-231 [2] is on record as “potent inhibition of clone formation”. In addition, the capillary-like tube formation result in [3] is given as “dose dependent inhibition”. Moreover, the “phosphorylated AKT (ser 473) protein expression” value in the test on AKT pathway was “down regulating AKT phosphorylation”.

These data come from US8748598B2, “Analogs of 3-O-acetyl-11-keto-beta-boswellic acid” (Laila Nutraceuticals, priority 2004, dated 2014).
